# Results reported in patent US20230165836A1, “ALPHA-2 ADRENERGIC RECEPTOR AGONISTS FOR THE TREATMENT OF CANCER” (UNIVERSITÉ CATHOLIQUE DE LOUVAIN, priority 2020, published 2023).
# “Also recorded” adds a separate entry of the source.
# How the values were obtained:
# [1] = tested on: immune-resistant autochthonous melanoma tumors (TiRP); experiment: TiRP melanoma with adoptive cell transfer (ACT) of P1A-specific CD8+T cells; type: in vivo, TiRP mice
# From the text: TiRP mice have been created by crossing Ink4a/Are^flox/flox mice with mice carrying a transgenic construct controlled by the tyrosinase promoter and driving the expression of H-Ras ^12V and Trapl a which encodes a MAGE-type tumor antigen P1A; the promoter is separated from the coding region by a stop cassette made of a floxed self-deleting CreER (Huijbers et al., 2006, Cancer Res 66, 3278-3286). Those mice were backcrossed to a B10.D2 background and bred to homozygosity. TCRP1A mice heterozygous for the H-2Ld/P1A35-43-specific TCR transgene were kept on the B10.D2;Rag1^−/− background (Shanker et al., 2004, J Immunol 172, 5069-5077). BALB/c mice were used in tumor transplantation experiments. TiRP-derived T429.11 transplanted melanoma model: T429.11 clone was derived from an induced Amela TiRP tumor referred to as T429. It was cloned from the T429 induced melanoma primary tumor line. Two million of T429.11 tumor cells were injected subcutaneously into recipient mice for tumor establishment (Zhu et al., 2017, Nat Commun. 10; 8(1):1404). Adra2a tm1Bkk mice (Strain Name: B6.129-Adra2a tm1Bkk /J, # 004367) were obtained from Jackson Laboratory (Bar Harbor, Me., USA).
# (§1) A fresh solution of 40H-Tamoxifen was prepared by dissolving 40H-Tamoxifen (Imaginechem®) in 100% ethanol and mineral oil (ratio 1:9) followed by 30 min sonication, and injected subcutaneously (2 mg/200 uL per mouse) in the neck area of gender-matched 7 weeks old TiRP mice. Tumor appearance was monitored daily and tumors were measured three times/week. Tumor volume (in mm^3) was calculated by the following formula: Volume=width^2×length/2.
# For the adoptive cell transfer (ACT), P1A-specific (TCRP1A) CD8+T cells were isolated from spleens and lymph nodes of TCRP1A mice as described hereinabove, and stimulated in vitro by co-culture with irradiated (10,000 rads) L1210.P1A.B7-1 cells (Gajewski et al., 1995, J Immunol 154, 5637-5648) at 1:2 ratio (0.5×10^5 CD8+T cells and 10^5 L1210.P1A.B7-1 cells per well in 48-well plates) in IMDM (GIBCO®) containing 10% fetal bovine serum supplemented with L-arginine (0.55 mM, Merck®), L-asparagine (0.24 mM, Merck®), glutamine (1.5 mM, Merck®), beta-mercaptoethanol (50 μM, Sigma Aldrich®), 50 U mL^−1 penicillin and […] mL^−1 streptomycin (Life Technologies®). Four days later, TCRP1A CD8+T cells were purified on a Lymphoprep gradient (StemCell®) and 10^7 living cells were injected intravenously in 200 μL PBS in TiRP-tumor bearing mice on the day of randomization.
# TiRP-tumor bearing mice received adoptive cell transfer (ACT) of 10^7 P1A-specific activated CD8+T cells and daily injections of vehicle control, clonidine (5 mg/kg, i.p.), or clonidine (5 mg/kg, i.p.) combined with phentolamine (5 mg/kg, i.p.), when the tumor size was around 500 mm^3, until the day of sacrifice. Tumor size was monitored every 2 days. Mice were sacrificed when the tumor in control group reached around 2,000 mm^3.
# TiRP-tumor bearing mice received adoptive cell transfer (ACT) of 10^7 of P1A-specific activated CD8+T cells. Daily injections of 5 mg/kg i.p. of romifidine or clonidine were thus administered from the day of the ACT, when the tumor size was around 500 mm^3, until the day of sacrifice. As shown on FIGS. 5A-B, following romifidine or clonidine administration, tumor infiltration of CD8+T cells was increased. […]
# CT26 colon carcinomas = experiment: CT26 colon carcinoma model, daily i.p. treatment, tumor volume; type: in vivo, BALB/c mice; conditions: for effect of co-administered antagonist on the inhibition of tumor growth by clonidine / effect of co-administered antagonist on the inhibition of tumor growth by guanabenz: CT26; for effect of co-administered antagonist on the inhibition of tumor growth by clonidine: clonidine 5 mg/kg i.p. plus phentolamine 5 mg/kg, propranolol 5 mg/kg or yohimbine 10 mg/kg i.p. daily; for effect of co-administered antagonist on the inhibition of tumor growth by guanabenz: guanabenz 5 mg/kg i.p. plus phentolamine 5 mg/kg or yohimbine 10 mg/kg i.p. daily
# Experimental: Mice received a daily intra-peritoneal injection of guanabenz (5 mg/kg) or vehicle (PBS) from the day of randomization (and the day of ACT when applicable) until the day of sacrifice. For the co-administration of adrenergic receptor agonist and antagonist, BALB/c mice bearing CT26 colon carcinomas received daily injections of vehicle control, guanabenz (5 mg/kg, i.p.), or guanabenz (5 mg/kg, i.p.) plus yohimbine (10 mg/kg, i.p.), when the tumor size was around 50 mm^3, until the day of sacrifice.
# […] mice were injected subcutaneously with 2×10^6 CT26 colon tumor cells at an age of 6 to 8 weeks. […] For evaluation of yohimbine on the effect of clonidine and guanabenz, the mice were randomized into different groups when tumors size arrived around 100 mm^3 and received daily injections of guanabenz (5 mg/kg, i.p.), yohimbine (10 mg/kg), a mix of guanabenz (5 mg/kg, i.p.) and yohimbine (10 mg/kg, i.p.), clonidine (5 mg/kg, i.p.), a mix of clonidine (5 mg/kg, i.p.) and yohimbine (10 mg/kg, i.p.) or vehicle control. Tumor size was measured every 2 days and mice were sacrificed when the tumor in control group reached 1,000 mm^3.
# CT26 colon cancer = CT26 colon cancer tumor growth (FIGS. 15-16); type: in vivo, C57BL/6J mice
# From the text: Tumor infiltration of CD8+cells evaluated at the day of sacrifice by FACS (FIG. 15B). Tumor growth of CT26 colon cancer in NSG mice treated with PBS (Control), clonidine, clonidine mixed with yohimbine, or yohimbine alone (FIG. 15C). FIGS. 16A-C is a set of curves and histograms showing the tumor growth of CT26 colon cancer in C57BL/6J mice treated with PBS (Control, circles), guanabenz (diamonds), guanabenz mixed with yohimbine (light grey inverted triangles), or yohimbine alone (dark grey inverted triangles) (FIG. 16A); the tumor infiltration of CD8+ cells evaluated at the day of sacrifice by FACS (FIG. 16B); and the tumor growth of CT26 colon cancer in NSG mice treated with PBS (Control), guanabenz, guanabenz mixed with yohimbine, or yohimbine alone (FIG. 16C). […] For evaluation of yohimbine on the effect of clonidine and guanabenz, the mice were randomized into different groups when tumors size arrived around 100 mm^3 and received daily injections of guanabenz (5 mg/kg, i.p.), yohimbine (10 mg/kg), a mix of guanabenz (5 mg/kg, i.p.) and yohimbine (10 mg/kg, i.p.), clonidine (5 mg/kg, i.p.), a mix of clonidine (5 mg/kg, i.p.) and yohimbine (10 mg/kg, i.p.) or vehicle control.
# [2] = tested on: JAK2V617F mutated bone marrow; experiment: Myelofibrosis by JAK2V617F bone marrow transplantation, platelet counts; type: in vivo, mice; conditions: 5 mg/kg daily for three weeks
# Experimental: Murine femurs and tibias from JAK2V617F mutant mice were first harvested and cleaned thoroughly. Marrow cells were flushed into PBS with 2% fetal bovine serum using a 25G needle and syringe. Resulting cell suspensions were then filtered through a 40 uM cell strainer. Recipient mice were irradiated with two doses of 500 rad 4 h apart. 1 million of donor cells were injected into wild-type recipients by standard intravenous injection using a 27G insulin syringe. One week after bone marrow transplantation, mice were treated with guanabenz or clonidine at a dose of 5 mg/kg daily for three weeks. After three weeks of treatment, mice were dissected and peripheral blood was drawn by cardiac puncture, the platelet concentration was measured by Cell Counter Analyzer MS9-5V.
# [3] = tested on: human LS411N ovarian cancer; experiment: LS411N xenograft with adoptive transfer of allogeneic human PBMC; type: in vivo
# Experimental: (§2) Adoptive transfer of human PBMC was performed when tumor size reaches 100 mm^3.
# MC38 colon carcinomas [4] = experiment: MC38 colon carcinoma in wildtype mice; type: in vivo, C57BL/6 Wildtype mice; conditions: 5 mg/kg, i.p. daily from tumor size around 50 mm^3
# Experimental: (§3) C57BL/6 Wildtype or C57BL/6 Adra2a KO mice bearing MC38 colon carcinomas received daily injections of vehicle control (PBS), clonidine (5 mg/kg, i.p.) or guanabenz (5 mg/kg, i.p.), when the tumor size was around 50 mm^3, until the day of sacrifice.
# MC38 colon carcinomas [5] = experiment: MC38 colon carcinoma in Adra2a KO mice; type: in vivo, C57BL/6 Adra2a KO mice; conditions: 5 mg/kg, i.p. daily from tumor size around 50 mm^3
# Experimental: as §3
# JAK2V617F allele burden = experiment: Myelofibrosis by JAK2V617F bone marrow transplantation, allele burden; type: in vivo, C57BL/6 mice; conditions: 5 mg/kg i.p. daily; Day 7 versus Day 0
# Experimental: Bone marrow from primary CD45.2 JAK2V617F mice was mixed 1:1 with CD45.1 C57BL/6 marrow and transplanted into lethally irradiated CD45.2 C57BL/6 recipients. 1 month after bone marrow transplantation, mice were randomized into three groups and received daily i.p injection of 5 mg/kg of clonidine, guanabenz or PBS. Blood was taken on Day 0 (Just before the treatment) and on Day 7 (7 days after the treatment). The allele burden was assessed as a fraction of CD45.2 cells along total CD45 cells in the blood of mice.
# Decreased JAK2V617F allele burden is a golden standard method to evaluate the disease progression of MF.
# prostate cancer = experiment: Xenograft model of prostate cancer in NSG mice treated with PBMC; type: in vivo
# B16F1 melanoma [6] = experiment: B16F1 melanoma in immune deficient mice; type: in vivo; conditions: B16F1 in immune deficient NSG mice; 5 mg/kg, i.p.
# Experimental: (§4) FIGS. 10A-B is a set of curves showing the tumor growth of B16F1 melanoma in C57BL/6J (FIG. 10A) or immunodeficient NSG mice (FIG. 10B) treated with PBS (Control, curve 1) or clonidine (5 mg/kg, i.p., curve 2).
# (§5) FIGS. 11A-B is a set of curves showing the tumor growth of B16F1 melanoma in C57BL/6J (FIG. 11A) or NSG mice (FIG. 11B) treated with PBS (Control, curve 1) or guanfacine (5 mg/kg, i.p., curve 2).
# B16F1 melanoma [7] = experiment: B16F1 melanoma in immune competent mice; type: in vivo; conditions: B16F1 in immune competent C57BL/6 mice; 5 mg/kg, i.p.; monotherapy
# Experimental: as §4, §5
# TiRP melanoma = TiRP melanoma model, monotherapy; type: in vivo; conditions: TiRP+/+ mice; 5 mg/kg, i.p. daily from tumor size around 250 mm^3
# Experimental: FIGS. 14A-B is a set of curves showing the tumor growth (melanoma) in TiRP+/+ mice that have received daily injections of guanfacine (5 mg/kg, i.p. triangles; FIG. 14A), clonidine (5 mg/kg, i.p., circles; FIG. 14B), or control (PBS, i.p., squares), when the tumor size was around 250 mm^3 until sacrifice.
# TiRP mice have been created by crossing Ink4a/Are^flox/flox mice with mice carrying a transgenic construct controlled by the tyrosinase promoter and driving the expression of H-Ras ^12V and Trapl a which encodes a MAGE-type tumor antigen P1A; the promoter is separated from the coding region by a stop cassette made of a floxed self-deleting CreER (Huijbers et al., 2006, Cancer Res 66, 3278-3286). Those mice were backcrossed to a B10.D2 background and bred to homozygosity. TCRP1A mice heterozygous for the H-2Ld/P1A35-43-specific TCR transgene were kept on the B10.D2;Rag1^−/− background (Shanker et al., 2004, J Immunol 172, 5069-5077). […]
# as §1
# human LS411N cancer = experiment: LS411N xenograft with adoptive transfer of allogeneic human PBMC; type: in vivo; conditions: PBMC, clonidine mixed with yohimbine
# Experimental: as §2
smiles,measurement,setting,value
Cc1ccc(N(CC2=NCCN2)c2cccc(O)c2)cc1 [Phentolamine],effect of phentolamine on the inhibition of TiRP tumor growth by clonidine,"[1]; ACT, clonidine 5 mg/kg i.p. plus phentolamine 5 mg/kg i.p. daily",attenuated the inhibitory effect of clonidine on TiRP tumor growth
same,effect of co-administered antagonist on the inhibition of tumor growth by clonidine,CT26 colon carcinomas,attenuated the inhibitory effect
same,effect of co-administered antagonist on the inhibition of tumor growth by guanabenz,CT26 colon carcinomas,attenuated the inhibitory effect
N=C(N)N/N=C/c1c(Cl)cccc1Cl [guanabenz],tumor growth,"CT26 colon cancer; CT26 colon cancer, FIGS. 15A, 16A",inhibited CT26 colon cancer tumor growth
same,platelet (PLT) counts,[2],significantly reduces the platelet (PLT) counts; also recorded: significantly reduced the high platelet counts
same,tumor growth,[3]; human allogenic PBMC transferred at tumor size 100 mm^3,significant tumor inhibition
same,tumor growth,MC38 colon carcinomas [4],significant tumor inhibition
same,tumor inhibition in Adra2a KO mice,MC38 colon carcinomas [5],almost completely attenuated
same,tumor growth (tumor volume),"CT26 colon carcinomas; CT26 in BALB/c mice, 5 mg/kg, i.p. daily from tumor size around 50 mm^3 until sacrifice",promotes a decrease of the tumor volume; also recorded: strongly inhibited CT26 tumor growth
same,JAK2V617F allele burden (CD45.2 cells among total CD45 cells in blood),JAK2V617F allele burden,decrease of JAK2V617F allele burden in a number of mice
same,tumor growth,prostate cancer,strong tumor inhibition
N=C(N)NC(=O)Cc1c(Cl)cccc1Cl [guanfacine],"tumor growth, combined with ACT","[1]; TiRP mice, ACT of 10^7 P1A-specific CD8+T cells, 5 mg/kg i.p. daily",inhibited the tumor growth
same,tumor growth,B16F1 melanoma [6],No tumor inhibition was found
same,tumor growth,B16F1 melanoma [7],inhibited tumor growth
same,"tumor volume, monotherapy",TiRP melanoma,efficient in decreasing the tumor volume
Fc1cccc(Br)c1NC1=NCCN1 [romifidine],tumor infiltration of CD8+T cells (%CD8+T cells among total CD45+T cells),"[1]; TiRP mice with ACT, 5 mg/kg i.p. daily from day of ACT, tumor size around 500 mm^3, 5 mg/kg",increase of tumor infiltration of CD8+T cells; also recorded: increased
COC(=O)[C@@H]1[C@H]2C[C@H]3c4[nH]c5ccccc5c4CCN3C[C@@H]2CC[C@@H]1O [yohimbine],effect of yohimbine on the inhibition of tumor growth by clonidine,"CT26 colon cancer; CT26, clonidine mixed with yohimbine",strongly attenuated
same,effect of yohimbine on the inhibition of tumor growth by guanabenz,"CT26 colon cancer; CT26, guanabenz mixed with yohimbine",strongly attenuated
same,effect of yohimbine on the tumor inhibition by clonidine,human LS411N cancer,strongly attenuated
same,effect of yohimbine on the tumor inhibition by guanabenz,"[3]; PBMC, guanabenz mixed with yohimbine",strongly attenuated
same,effect of co-administered antagonist on the inhibition of tumor growth by clonidine,CT26 colon carcinomas,strongly attenuated; also recorded: reduced the inhibition of tumor growth
same,effect of co-administered antagonist on the inhibition of tumor growth by guanabenz,CT26 colon carcinomas,strongly attenuated; also recorded: reduced the inhibition of tumor growth
